Results published in patent US6852863B2, “Metabolites of (3-{[4-tert-butyl-benzyl)-(pyridine-3-sulfonyl)-amino]-methyl}-phenoxy)-acetic acid” (Pfizer Inc., priority 2002, dated 2005).

Tests used:
[1] = system: Monkey hepatocytes; experiment: Metabolism of parent in monkey hepatocytes; assay type: in vitro ADME, Cynomolgus monkey; conditions: 20 μM parent, 2 million cells per ml, 4 hours, 37° C.; mobile phase pH 5.0
Experimental: (§1) Human hepatocytes were generated from a mix of 3 livers. Rat and monkey hepatocytes were generated using Sprague Dawley rats (12 livers), Cynomolgus monkey (1 liver) and Beagle dogs (2 livers). Cryopreserved hepatocytes were suspended in William's E media with 10% FBS to a viable count of 2 million cells per ml and gassed with 95/5 O2/CO2 initially and every hour of incubations. After the addition of 20 μM (3-{[4-tert-butyl-benzyl)-(pyridine-3-sulfonyl)-amino]-methyl}-phenoxy)-acetic acid to a 25 ml Erlenmeyer flask, 2.5 ml of hepatocytes suspension was added and incubated for 4 hours at 37° C. in a shaking water bath.
(§2) Metabolite quantification was performed by measuring the areas of individually separated HPLC peaks using the β-RAM (IN/US, Win-flow). The β-RAM provided integrated peak representation printouts in CPM as well as the percentage of the radiolabeled material. The β-RAM was operated using a solid scintillation cell. […]
(§3) Identification of the metabolites was performed using a Finnigan TSQ 7000 triple quadrupole mass spectrometer equipped with an API-2 electrospray interface. […] The β-RAM response was recorded as a real time analog signal by the MS data collection system. The collected data from the radioactivity and MS detectors were separated by the dwell volume of flow from the MS to the radioactivity detector (corresponding to a dwell time of about 0.2 min.). […]

[2] = system: Dog hepatocytes; experiment: Metabolism of parent in dog hepatocytes; assay type: in vitro ADME, Beagle dogs; conditions: 20 μM parent, 2 million cells per ml, 4 hours, 37° C.
Experimental: as §1
Metabolite quantification was performed by measuring the areas of individually separated HPLC peaks using the β-RAM (IN/US, Win-flow). The β-RAM provided integrated peak representation printouts in CPM as well as the percentage of the radiolabeled material. The β-RAM was operated using a solid scintillation cell.
Incubations were stopped by the addition of an equal volume of cold acetonitrile, sonicated and centrifuged at 3000 rpm for 10 minutes. The supernatants were removed and evaporated to dryness under nitrogen. Residues were reconstituted in 50:50 (acetonitrile: water) and aliquots (50-90 μl) were injected onto the HPLC system for analysis.
The HPLC system consisted of a HP-1100 solvent delivery system, a HP-1100 membrane degasser, a HP-1100 autoinjector (Hewlett Packard) and an IN/US radioactive monitor (β-RAM). Chromatography was performed on a YMC AQ (C-18) column (4.6 mm×150 mm, 3 μm) (Waters, Milford, Mass.). […]
as §3

[3] = system: Rat hepatocytes; experiment: Metabolism of parent in rat hepatocytes; assay type: in vitro ADME, Sprague Dawley rats; conditions: 20 μM parent, 2 million cells per ml, 4 hours, 37° C.
Experimental: as §1, §2, §3

[4] = Metabolism of 14C-parent in dog liver microsomes; assay type: in vitro ADME; conditions: 20 μM 14C-parent, NADPH, 30 minutes, 37° C.; HPLC radiochromatogram peak
Experimental: (§4) Human (HL-mix 12), rat, monkey and dog liver microsomes were prepared by differential centrifugation using standard procedures. Prior to use, liver microsomes were thawed on ice and reconstituted using 100 mM potassium phosphate pH 7.4. [^14C]-(3-{[4-tert-butyl-benzyl)-(pyridine-3-sulfonyl)-amino]-methyl}-phenoxy)-acetic acid was dissolved 100 mM potassium phosphate pH 7.4 at a final substrate concentration of 20 μM. Samples were pre-incubated for 3 min with microsomes (CYP 450; 0.5 μM) at 37° C. in a shaking water bath. Incubations were initiated with the addition of 100 μl cofactor (1.1 mM NADPH, 10 mM MgCl2) per 1 ml of incubation mixture. Incubations were stopped after 30 minutes by the addition of an equal volume of cold acetonitrile.
(§5) Metabolite quantification was performed by measuring the areas of individually separated HPLC peaks using the β-RAM (IN/US, Win-flow). […]
as §3

[5] = Metabolism of 14C-parent in monkey liver microsomes; assay type: in vitro ADME; conditions: 20 μM 14C-parent, NADPH, 30 minutes, 37° C.; HPLC radiochromatogram peak
Experimental: as §4, §5, §3

[6] = Metabolism of 14C-parent in rat liver microsomes; assay type: in vitro ADME; conditions: 20 μM 14C-parent, NADPH, 30 minutes, 37° C.; HPLC radiochromatogram peak
Experimental: as §4, §5, §3

[7] = target: T1, rat EP2 prostaglandin E2 receptor (Rattus norvegicus, UniProt Q62928); experiment: Rat EP2 receptor binding assay (displacement of 3H-prostaglandin E2); conditions: 293S cell membranes expressing rat EP2, 3 nM 3H-prostaglandin E2, 1 hour at 25° C.
T1 construct: This full length receptor is used to prepare 293S cells expressing the EP2 receptor; expressed in transfected cells; membranes used in the assay
From the text: Rat EP2 Recptor Binding Assay
Assay for Binding to Prostaglandin E2 Receptors
The full length EP2 receptor is made as disclosed in Nemoto et al., Prostaglandins and other Lipid Mediators, 1997, 54, 713-725. This full length receptor is used to prepare 293S cells expressing the EP2 receptor.
293S cells expressing the rat EP2 prostaglandin E2 receptor are generated according to methods known to those skilled in the art. Typically, PCR (polymerase chain reaction) primers corresponding to the 5′ and 3′ ends of the published full length receptor are made according to the well known methods disclosed above and are used in an RT-PCR reaction using the total RNA from rat kidney as a source. […]
Membrane Preparation: All operations are performed at 4° C. […] Pelleted membranes are resuspended to 3-10 mg protein per ml, protein concentration being determined of the method of Bradford [Bradford, M., Anal. Biochem., 72, 248 (1976)]. […]
Binding Assay: Frozen membranes prepared as above are thawed and diluted to 1 mg protein per ml in Buffer A above. […] To determine the amount of ^3H-prostaglandin bound to the membranes, the dried filters are placed into plastic bags with scintillation fluid and counted in a LKB 1205 Betaplate reader (Wallac, Gaithersburg, Md.). […]

T1 sequence (Q62928 whole entry): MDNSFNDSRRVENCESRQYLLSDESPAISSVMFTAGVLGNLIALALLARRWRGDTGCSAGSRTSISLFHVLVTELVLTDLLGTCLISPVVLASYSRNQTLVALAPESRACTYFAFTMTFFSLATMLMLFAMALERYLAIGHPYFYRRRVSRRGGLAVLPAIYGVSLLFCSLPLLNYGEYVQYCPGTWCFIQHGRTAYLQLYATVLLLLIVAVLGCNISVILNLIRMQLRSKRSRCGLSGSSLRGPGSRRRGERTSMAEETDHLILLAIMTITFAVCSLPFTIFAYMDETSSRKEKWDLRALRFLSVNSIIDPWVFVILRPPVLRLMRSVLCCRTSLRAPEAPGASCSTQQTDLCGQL

Row | Compound | Percent of Radioactivity, Dog hepatocytes [2] [%] | Percent of Radioactivity, Rat hepatocytes [3] [%] | also measured
1 | CC(C)(CO)c1ccc(CNS(=O)(=O)c2cccnc2)cc1 [Metabolite M21, pyridine-3-sulfonic acid 4-(2-hydroxy-1,1-dimethyl-ethyl)-benzylamide] | 7.92 | 8.91 | Percent of Radioactivity, Monkey hepatocytes [1]: 4.53%
2 | CC(C)(C)c1ccc(CNS(=O)(=O)c2cccnc2)cc1 [Metabolite M20, pyridine-3-sulfonic acid 4-tert-butyl-benzylamide] | – | – | Percent of Radioactivity, Dog liver microsomes [4]: 1.96%
3 | CC(C)(C(=O)O)c1ccc(CNS(=O)(=O)c2cccnc2)cc1 [Metabolite M11, 2-methyl-2-{4-[(pyridine-3-sulfonylamino)-methyl]-phenyl}-propionic acid] | – | – | Percent of Radioactivity, Monkey liver microsomes [5]: 7.97%; Percent of Radioactivity, Rat liver microsomes [6]: 20.7%
4 | dihydroxy (3-{[4-tert-butyl-benzyl)-(pyridine-3-sulfonyl)-amino]-methyl}-phenoxy)-acetic acid [Metabolite M2] | 6.59 | 15.1 | –
5 | CC(C)(C)c1ccc(CN(Cc2ccc(O)c(OCC(=O)O)c2)S(=O)(=O)c2cccnc2)cc1 [Metabolite M12, (5-{[(4-tert-butyl-benzyl)-(pyridine-3-sulfonyl)-amino]-methyl}-hydroxy-phenoxy)-acetic acid] | 15.0 | – | –
6 | CC(C)(C(=O)O)c1ccc(CN(Cc2cccc(OCC(=O)O)c2)S(=O)(=O)c2cccnc2)cc1 [Metabolite M3, 2-(4-{[(3-carboxymethoxy-benzyl)-(pyridine-3-sulfonyl)-amino]-methyl}-phenyl)-2-methyl-propionic acid] | – | – | IC50 [7]: 750 nM
